# Experimental data reported in article PMC11062894, “Protein-based bandpass filters for controlling cellular signaling with chemical inputs” (Nature Chemical Biology, 2023).
# Several values for one entry are separate records, joined by “and”; a condition that tells them apart may be missing. Equal values may be shown once.
# Test system: GEMS receptors with CBPA11 (BclXL–LD3 and BclXLhigh variants), STAT3-driven SEAP in HEK293T cells
# Assay: GEMS SEAP reporter assay, CBPA11 (BclXLhigh, LD3-v and BclXL-v variants) with A-1155463
# Assay type: cell-based
# Design: key to Raw data (SEAP) / SEAP, replicate values / Raw data of Figure 5b / Raw data Figure 5e / Raw data of Independent repeat of CBPA11-v1 vs CBPA11-v1-LD3v3 / Raw data of Independent repeat of CBPA11-v3 vs CBPA11-v3-LD3v3 / Raw data of Figure 5b, CBPA11-v1-LD3v3 (SEAP reporter raw value, single replicate) / Raw data of Figure 5b, CBPA11-v1 (SEAP reporter raw value, single replicate): SEAP activity in U/L in culture supernatant
# Text: To rationally design a CBP responding to a chemical input, we used BclXL as the druglow receptor, LD3 as the designed binder and a designed BclXL variant as the drughigh receptor (referred to as BclXLhigh) to construct a CBP responsive to BclXL inhibitors (Fig. 4a). To design BclXLhigh, we used a multistate design computational protocol described elsewhere[26] […] Thus, BclXLhigh-v(1–3) were chosen as the functional drughigh receptors, resulting in three A-1155463-controlled CBPs (referred to as CBPA11-v(1–3)) (Fig. 4c–e).
# HEK293T cells were seeded in a 96-well plate 24 h before transfection. The transfection mix in each well consisted of 3 ng of constitutive human CMV promoter driven mammalian STAT3 expression vector (PhCMV-STAT3-pA), 30 ng of STAT3-induced reporter expression (OStat3-PhCMVmin-SEAP-pA) and 50 ng of expression vectors for each GEMS receptor chain (PSV40-IgK-(drughigh receptor)-EpoRm-IL-6RBm-pA and PSV40-IgK-(druglow receptor-GGGGSX3-LD3)-EpoRm-IL-6RBm-pA). For the specific drughigh receptor and druglow receptor used in the different cellular assays, they are indicated as wild type or with mutations. Then, plasmid DNA was mixed with 50 μl opti-MEM (Thermo Fisher) and 600 ng of polyethyleneimine (Polysciences, catalog no. 24765-1). For drug treatment experiments, drugs were added 12 h post-transfection and incubated with cells for 24 h before the SEAP reporter detection assay.
# SEAP activity (U l^−1) in cell culture supernatants was quantified by kinetic measurements at 405 nm (1 minute per measurement for 30 cycles) of absorbance increase due to phosphatase-mediated hydrolysis of para-nitrophenyl phosphate (pNPP).
# Binding affinities of SPR drug competition assays were calculated using three-parameter nonlinear regression in GraphPad Prism (v.8.3.0). Representative data of cell assays are presented as individual values and mean values (bars). n = 3 refers to biological replicates. All IC50 or EC50 values of cell assays reported were calculated using four-parameter nonlinear regression ± s.d. Bandpass features of cutoff concentrations and Bandwidth90% were estimated based on the curve fitted using bell-shaped curve nonlinear regression in GraphPad Prism (v.8.3.0). […]
# Supplementary Figure 4: Design, screening and validation of BclXLhigh variants. a) Screening of BclXLhigh variants in the GEMS platform. […]
# Dissociation constant measurement of BclXLhigh-v(1-3) and LD3. Equilibrium curves are fitted using […]
# BclXLhigh-v1 (purple), BclXLhigh-v2 (blue), […]
# a) Bcl2high-based bandpass filter designs were developed and to respond to different concentrations of […]
# corresponding inhibitor. c) Screening of Bcl2high-based bandpass filter variants in the GEMS platform.
# The designed binder LD3 was fused to the druglow-receptor (PSV40-IgK-Bcl2-LD3-EpoRm-IL-6RBm-pA) in one EpoR chain and Bcl2high variants with the insensitive Bcl2 (iBcl2) as control in the other EpoR chain (PSV40-IgK-Bcl2high-EpoRm-IL-6RBm-pA). HEK293T cells were transfected with indicated […]
# the mean of six biological replicates ± s.d., overlaid with a scatter dot plot of the original data points.
# (1 picture or pasted object on this page, not shown here)
# Supplementary Figure 6: Binding affinities and drug resistances of Bcl2high-v(2,4,5) assessed by […]
# a) Measurement of dissociation constants for Bcl2high-v(2,4,5) and LD3 interactions. Equilibrium curves […]
# Bcl2high-v(2,4,5) measured by SPR. 5 μM of Bcl2 or indicated variants were mixed with 10 μM of […]
# Bcl2high-v2 (red), Bcl2high-v4
# Supplementary Figure 7: Screening of LD3 variants in CBPA11-v(1-3) and raw data of CBPA11-v(1,3) with LD3-v3 variant. a-c) Screening of LD3 and LD3-v(1-3) variants in complex with BclXL for more sensitive CBPA11-v1 (a), CBPA11-v2 (b), CBPA11-v3 (c) in the GEMS platform. The LD3 variants replaced the role of LD3 (PSV40-IgK-BclXL-LD3-v(1-3)-EpoRm-IL-6RBm-pA) in one EpoR chain and BclXLhigh-v(1-3) in the other EpoR chain (PSV40-IgK-BclXLhigh-V(1-3)-EpoRm-IL-6RBm-pA). HEK293T cells were transfected with […]
smiles,measurement,setting,value
CN(C)CC#Cc1ccc(OCCCc2sc(N3CCc4cccc(C(=O)Nc5nc6ccccc6s5)c4C3)nc2C(=O)O)c(F)c1 [A-1155463],"Raw data of Figure 5b, CBPA11-v1-LD3v3 (SEAP reporter raw value, single replicate)","A-1155463 10000 nM, construct CBPA11-v1-LD3v3, three replicate columns",23.9254 and 24.8005 and 21.4423
same,"Raw data of Figure 5b, CBPA11-v1 (SEAP reporter raw value, single replicate)","A-1155463 10000 nM, construct CBPA11-v1, three replicate columns",69.4522 and 75.5808 and 84.1281
same,Raw data of Independent repeat of CBPA11-v1 vs CBPA11-v1-LD3v3,"CBPA11-v1, A-1155463 0.01 nM",21.5154 and 21.2395 and 24.0629
same,Normalized data Figure 5e,"CBPA11-v1, A-1155463 1 nM",6.4824 and 7.053 and 8.837
same,Normalized data of Figure 5b,"CBPA11-v1, A-1155463 1 nM",1.402 and 1.595 and 1.731
same,Raw data of Figure 5b,"CBPA11-v1, A-1155463 1 nM",11.9307 and 13.3631 and 14.4518
same,Raw data of Independent repeat of CBPA11-v1 vs CBPA11-v1-LD3v3,"CBPA11-v1, A-1155463 1 nM",71.2806 and 66.4229 and 63.7452
same,Raw data of Independent repeat of CBPA11-v1 vs CBPA11-v1-LD3v3,"CBPA11-v1, A-1155463 3.16 nM",80.0965 and 82.8427 and 80.4448
same,Normalized data Figure 5e,"CBPA11-v1, A-1155463 3.18 nM",7.202 and 10.0096 and 11.7189
same,Normalized data Figure 5e,"CBPA11-v1, A-1155463 10 nM",46.8388 and 51.1661 and 51.2149
same,Normalized data of Figure 5b,"CBPA11-v1, A-1155463 10 nM",14.5535 and 13.2638 and 13.0086
same,Raw data of Figure 5b,"CBPA11-v1, A-1155463 10 nM",123.839 and 111.135 and 108.599
same,Raw data of Independent repeat of CBPA11-v1 vs CBPA11-v1-LD3v3,"CBPA11-v1, A-1155463 10 nM",462.474 and 463.658 and 418.386
same,Raw data of Independent repeat of CBPA11-v1 vs CBPA11-v1-LD3v3,"CBPA11-v1, A-1155463 31.6 nM",571.289 and 570.216 and 457.441
same,Normalized data Figure 5e,"CBPA11-v1, A-1155463 31.8 nM",63.7218 and 71.158 and 71.088
same,Normalized data of Figure 5b,"CBPA11-v1, A-1155463 31.8 nM",45.8074 and 33.2331 and 44.7698
same,Raw data of Figure 5b,"CBPA11-v1, A-1155463 31.8 nM",389.784 and 278.454 and 373.749
same,Normalized data Figure 5e,"CBPA11-v1, A-1155463 100 nM",98.9083 and 100
same,Normalized data of Figure 5b,"CBPA11-v1, A-1155463 100 nM",66.3164 and 72.6195 and 72.7718
same,Raw data of Figure 5b,"CBPA11-v1, A-1155463 100 nM",564.299 and 608.466 and 607.516
same,Raw data of Independent repeat of CBPA11-v1 vs CBPA11-v1-LD3v3,"CBPA11-v1, A-1155463 100 nM",770.33 and 757.162 and 752.74
same,Raw data of Independent repeat of CBPA11-v1 vs CBPA11-v1-LD3v3,"CBPA11-v1, A-1155463 316 nM",692.583 and 694.97 and 762.999
same,Normalized data Figure 5e,"CBPA11-v1, A-1155463 318 nM",100 and 89.6838 and 88.8002
same,Normalized data of Figure 5b,"CBPA11-v1, A-1155463 318 nM",100
same,Raw data of Figure 5b,"CBPA11-v1, A-1155463 318 nM",850.92 and 837.883 and 834.824
same,Normalized data Figure 5e,"CBPA11-v1, A-1155463 1000 nM",87.8736 and 79.7319 and 71.766
same,Normalized data of Figure 5b,"CBPA11-v1, A-1155463 1000 nM",69.8009 and 76.8483 and 84.4115
same,Raw data of Figure 5b,"CBPA11-v1, A-1155463 1000 nM",593.95 and 643.898 and 704.687
same,Raw data of Independent repeat of CBPA11-v1 vs CBPA11-v1-LD3v3,"CBPA11-v1, A-1155463 1000 nM",543.865 and 540.678 and 577.914
same,Raw data of Independent repeat of CBPA11-v1 vs CBPA11-v1-LD3v3,"CBPA11-v1, A-1155463 3160 nM",413.782 and 413.648 and 344.2
same,Normalized data Figure 5e,"CBPA11-v1, A-1155463 3180 nM",51.7606 and 52.3661 and 51.7462
same,Normalized data of Figure 5b,"CBPA11-v1, A-1155463 3180 nM",53.3499 and 60.9077 and 57.5176
same,Raw data of Figure 5b,"CBPA11-v1, A-1155463 3180 nM",453.965 and 510.335 and 480.171
same,Normalized data Figure 5e,"CBPA11-v1, A-1155463 10000 nM",19.9955 and 19.9571 and 22.5422
same,Normalized data of Figure 5b,"CBPA11-v1, A-1155463 10000 nM",33.8321 and 33.8547 and 35.5742
same,Raw data of Figure 5b,"CBPA11-v1, A-1155463 10000 nM",287.884 and 283.663 and 296.982
same,Raw data of Independent repeat of CBPA11-v1 vs CBPA11-v1-LD3v3,"CBPA11-v1, A-1155463 10000 nM",129.42 and 154.739 and 117.07
same,Normalized data Figure 5e,"CBPA11-v1-BclXLv2, A-1155463 1 nM",21.782 and 18.7434 and 19.0174
same,Normalized data Figure 5e,"CBPA11-v1-BclXLv2, A-1155463 3.18 nM",30.7821 and 38.1789 and 36.4445
same,Normalized data Figure 5e,"CBPA11-v1-BclXLv2, A-1155463 10 nM",85.4791 and 79.6848 and 85.0591
same,Normalized data Figure 5e,"CBPA11-v1-BclXLv2, A-1155463 31.8 nM",84.8971 and 95.7911 and 86.6879
same,Normalized data Figure 5e,"CBPA11-v1-BclXLv2, A-1155463 100 nM",100 and 90.6768
same,Normalized data Figure 5e,"CBPA11-v1-BclXLv2, A-1155463 318 nM",91.2979 and 98.815 and 100
same,Normalized data Figure 5e,"CBPA11-v1-BclXLv2, A-1155463 1000 nM",86.9949 and 91.0394 and 83.6084
same,Normalized data Figure 5e,"CBPA11-v1-BclXLv2, A-1155463 3180 nM",69.3324 and 72.9533 and 70.3736
same,Normalized data Figure 5e,"CBPA11-v1-BclXLv2, A-1155463 10000 nM",38.0946 and 36.2941 and 35.5843
same,Raw data of Independent repeat of CBPA11-v1 vs CBPA11-v1-LD3v3,"CBPA11-v1-LD3v3, A-1155463 0.01 nM",17.2788 and 15.3201 and 15.4842
